Experimental findings from patent US10479786B2, “Protein kinase inhibitors” (Princeton Drug Discovery Inc, priority 2016, dated 2019) are described below.

A value given as a limit tells only on which side of the number the result lay.

Data set [1] has as its target T1, BMX (Homo sapiens, UniProt P51813).
T1 construct: purchased Carna Biosciences, Inc
T1 sequence (P51813 1-675): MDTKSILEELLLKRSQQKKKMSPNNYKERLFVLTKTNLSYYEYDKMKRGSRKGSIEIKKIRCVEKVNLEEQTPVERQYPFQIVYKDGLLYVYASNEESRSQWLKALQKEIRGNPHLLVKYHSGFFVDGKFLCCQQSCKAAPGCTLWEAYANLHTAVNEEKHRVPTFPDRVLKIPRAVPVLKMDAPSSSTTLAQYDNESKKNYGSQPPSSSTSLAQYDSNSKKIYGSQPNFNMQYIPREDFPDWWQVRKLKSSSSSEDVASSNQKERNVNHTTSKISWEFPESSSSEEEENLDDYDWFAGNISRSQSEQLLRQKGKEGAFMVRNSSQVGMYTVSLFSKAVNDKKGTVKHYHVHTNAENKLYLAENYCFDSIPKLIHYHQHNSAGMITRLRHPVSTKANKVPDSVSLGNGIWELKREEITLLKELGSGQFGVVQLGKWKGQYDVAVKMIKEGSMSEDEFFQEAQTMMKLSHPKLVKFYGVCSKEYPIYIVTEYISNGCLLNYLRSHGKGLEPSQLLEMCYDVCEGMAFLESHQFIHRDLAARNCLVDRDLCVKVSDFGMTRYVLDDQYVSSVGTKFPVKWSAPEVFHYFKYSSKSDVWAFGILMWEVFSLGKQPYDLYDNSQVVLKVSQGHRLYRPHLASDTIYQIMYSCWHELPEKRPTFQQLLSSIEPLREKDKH
As to the kind of experiment: Off-chip Mobility Shift Assay, kinase inhibition. It is filed as biochemical. As to conditions: recombinant BMX; for inhibition at 0.001 µM: at 1 nM; for inhibition at 0.01 µM: at 10 nM.

Data set [2] deals with T2, BTK (Homo sapiens, UniProt Q06187).
T2 construct: purchased Carna Biosciences, Inc
T2 sequence (Q06187 whole entry): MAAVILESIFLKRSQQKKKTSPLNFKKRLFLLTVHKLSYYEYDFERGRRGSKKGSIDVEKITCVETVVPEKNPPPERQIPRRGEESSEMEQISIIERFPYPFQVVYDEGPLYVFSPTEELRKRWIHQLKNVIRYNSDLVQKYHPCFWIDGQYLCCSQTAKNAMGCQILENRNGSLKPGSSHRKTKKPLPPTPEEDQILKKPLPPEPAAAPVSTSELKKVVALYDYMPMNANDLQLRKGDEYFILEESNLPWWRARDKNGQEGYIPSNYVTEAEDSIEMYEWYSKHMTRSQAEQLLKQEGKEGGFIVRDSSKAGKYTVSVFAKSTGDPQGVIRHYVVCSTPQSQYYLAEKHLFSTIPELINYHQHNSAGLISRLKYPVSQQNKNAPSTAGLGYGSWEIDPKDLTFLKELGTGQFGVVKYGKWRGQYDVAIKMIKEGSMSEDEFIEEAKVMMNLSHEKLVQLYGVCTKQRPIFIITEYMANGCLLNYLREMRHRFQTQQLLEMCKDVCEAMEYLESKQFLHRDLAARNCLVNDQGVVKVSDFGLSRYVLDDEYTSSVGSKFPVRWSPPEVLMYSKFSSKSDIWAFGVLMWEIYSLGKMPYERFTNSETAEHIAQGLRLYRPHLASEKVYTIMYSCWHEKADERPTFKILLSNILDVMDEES
As to the kind of experiment: Off-chip Mobility Shift Assay, kinase inhibition. It is filed as biochemical. As to conditions: recombinant BTK; for inhibition at 0.001 µM: at 1 nM; for inhibition at 0.01 µM: at 10 nM.

The target in data set [3] is T3, EPHA1 (Homo sapiens, UniProt P21709).
T3 construct: purchased Carna Biosciences, Inc
T3 sequence (P21709 26-976): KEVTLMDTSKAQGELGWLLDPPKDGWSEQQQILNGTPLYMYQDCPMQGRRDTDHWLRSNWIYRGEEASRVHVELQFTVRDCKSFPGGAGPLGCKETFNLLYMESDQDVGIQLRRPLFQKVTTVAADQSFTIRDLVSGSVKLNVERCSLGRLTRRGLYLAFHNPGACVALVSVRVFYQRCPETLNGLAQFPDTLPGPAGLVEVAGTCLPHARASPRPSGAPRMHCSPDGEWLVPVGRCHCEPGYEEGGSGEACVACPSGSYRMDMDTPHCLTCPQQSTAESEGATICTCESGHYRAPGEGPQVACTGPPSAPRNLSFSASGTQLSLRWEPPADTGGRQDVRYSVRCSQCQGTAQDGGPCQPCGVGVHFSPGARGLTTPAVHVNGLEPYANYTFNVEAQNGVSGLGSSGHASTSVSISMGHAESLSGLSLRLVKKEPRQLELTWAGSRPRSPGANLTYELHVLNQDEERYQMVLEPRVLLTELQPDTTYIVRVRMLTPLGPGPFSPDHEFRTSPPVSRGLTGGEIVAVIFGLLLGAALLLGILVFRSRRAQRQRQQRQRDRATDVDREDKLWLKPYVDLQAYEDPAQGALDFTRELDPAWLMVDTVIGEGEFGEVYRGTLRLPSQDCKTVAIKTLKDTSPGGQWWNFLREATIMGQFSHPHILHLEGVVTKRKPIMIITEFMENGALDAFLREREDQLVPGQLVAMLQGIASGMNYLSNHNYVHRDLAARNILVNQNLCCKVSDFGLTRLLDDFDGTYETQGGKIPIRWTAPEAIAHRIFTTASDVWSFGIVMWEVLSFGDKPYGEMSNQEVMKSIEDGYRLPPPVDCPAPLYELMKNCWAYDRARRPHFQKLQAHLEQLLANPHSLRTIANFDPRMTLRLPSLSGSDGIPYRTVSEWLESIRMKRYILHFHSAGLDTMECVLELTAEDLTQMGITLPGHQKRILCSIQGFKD
The data set is described as follows: Off-chip Mobility Shift Assay, kinase inhibition. It is filed as biochemical. Particulars: recombinant EPHA1; for inhibition at 0.001 µM: at 1 nM; for inhibition at 0.01 µM: at 10 nM.

Data set [4] deals with T4, FMS (Homo sapiens, UniProt P07333).
T4 construct: purchased Carna Biosciences, Inc
T4 sequence (P07333 20-972): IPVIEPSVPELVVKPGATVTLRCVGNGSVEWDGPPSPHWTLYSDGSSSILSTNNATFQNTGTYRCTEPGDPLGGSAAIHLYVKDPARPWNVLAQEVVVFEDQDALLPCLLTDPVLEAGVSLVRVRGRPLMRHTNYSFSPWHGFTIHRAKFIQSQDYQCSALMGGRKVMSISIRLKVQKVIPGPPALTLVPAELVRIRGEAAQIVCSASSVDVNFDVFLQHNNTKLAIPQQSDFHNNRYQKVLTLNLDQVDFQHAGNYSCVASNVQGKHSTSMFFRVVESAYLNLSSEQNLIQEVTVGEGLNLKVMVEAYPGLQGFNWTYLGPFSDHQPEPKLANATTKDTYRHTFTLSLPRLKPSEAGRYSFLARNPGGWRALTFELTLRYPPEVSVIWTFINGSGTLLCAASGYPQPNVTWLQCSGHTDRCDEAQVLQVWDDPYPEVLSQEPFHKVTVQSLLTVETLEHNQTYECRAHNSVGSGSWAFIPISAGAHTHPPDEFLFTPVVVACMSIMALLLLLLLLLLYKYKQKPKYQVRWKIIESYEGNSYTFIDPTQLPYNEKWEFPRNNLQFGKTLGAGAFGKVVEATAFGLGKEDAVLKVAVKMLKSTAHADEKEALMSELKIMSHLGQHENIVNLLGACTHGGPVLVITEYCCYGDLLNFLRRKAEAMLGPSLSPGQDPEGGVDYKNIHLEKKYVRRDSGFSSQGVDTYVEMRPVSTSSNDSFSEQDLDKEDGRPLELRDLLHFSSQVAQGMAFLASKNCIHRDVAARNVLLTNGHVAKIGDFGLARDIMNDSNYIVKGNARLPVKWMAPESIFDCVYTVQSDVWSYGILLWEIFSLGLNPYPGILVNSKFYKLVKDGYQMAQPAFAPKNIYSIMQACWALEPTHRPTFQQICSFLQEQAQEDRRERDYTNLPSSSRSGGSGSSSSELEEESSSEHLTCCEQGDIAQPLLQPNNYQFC
The data set is described as follows: Off-chip Mobility Shift Assay, kinase inhibition. It is filed as biochemical. As to conditions: recombinant FMS; for inhibition at 0.001 µM: at 1 nM; for inhibition at 0.01 µM: at 10 nM.

The target in data set [5] is T5, LCK (Homo sapiens, UniProt P06239).
T5 construct: purchased Carna Biosciences, Inc
T5 sequence (P06239 whole entry): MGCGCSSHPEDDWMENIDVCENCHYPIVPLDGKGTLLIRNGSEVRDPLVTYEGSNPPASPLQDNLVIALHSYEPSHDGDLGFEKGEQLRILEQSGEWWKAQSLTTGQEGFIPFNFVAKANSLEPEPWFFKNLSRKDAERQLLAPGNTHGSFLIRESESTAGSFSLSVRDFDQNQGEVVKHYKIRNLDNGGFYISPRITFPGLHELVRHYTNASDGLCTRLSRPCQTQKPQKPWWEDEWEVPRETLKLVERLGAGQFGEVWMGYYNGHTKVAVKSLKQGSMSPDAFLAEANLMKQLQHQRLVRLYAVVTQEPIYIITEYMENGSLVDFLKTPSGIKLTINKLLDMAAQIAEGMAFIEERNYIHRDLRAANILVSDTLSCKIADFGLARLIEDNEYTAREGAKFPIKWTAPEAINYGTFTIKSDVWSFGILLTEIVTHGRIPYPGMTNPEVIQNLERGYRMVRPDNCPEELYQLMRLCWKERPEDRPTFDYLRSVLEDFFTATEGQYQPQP
As to the kind of experiment: Off-chip Mobility Shift Assay, kinase inhibition. It is filed as biochemical. As to conditions: recombinant LCK; for inhibition at 0.001 µM: at 1 nM; for inhibition at 0.01 µM: at 10 nM.

Data set [6] is described as follows: Metabolic stability in human liver microsomes. It is filed as in vitro ADME. Particulars: for metabolic stability compared to dasatinib: human liver microsomes; for In vitro t1/2: 1 μM, human liver microsomes 0.5 mg/mL, NADPH and UDPGA, 37° C. Here is the method:
FIG. 1. Metabolic stability of compounds in human liver microsomal incubations. […] Concentrations at specified times were determined by LC-MS/MS.
The incubation reactions at various time points were quenched by adding 2× volumes of acetonitrile containing 100 nM reserpine. The quenched incubation samples were centrifuged at 4000 RPM for 10 min, and the supernatants injected for LC/MS/MS analysis. LC/MS/MS analysis was carried out on a AB Sciex 4000 Q Trap LC/MS/MS system coupled with Shimadzu Prominence UFLCXR 20 series (including a CBM-20A controller, two LC-20ADXR solvent delivery units, SIL-20AC HT autosampler, CTO-20A column oven, and a SPD-20A UV detector).

In data set [7] the target is T6, TEC (Homo sapiens, UniProt P42680).
T6 construct: purchased Carna Biosciences, Inc
T6 sequence (P42680 1-631): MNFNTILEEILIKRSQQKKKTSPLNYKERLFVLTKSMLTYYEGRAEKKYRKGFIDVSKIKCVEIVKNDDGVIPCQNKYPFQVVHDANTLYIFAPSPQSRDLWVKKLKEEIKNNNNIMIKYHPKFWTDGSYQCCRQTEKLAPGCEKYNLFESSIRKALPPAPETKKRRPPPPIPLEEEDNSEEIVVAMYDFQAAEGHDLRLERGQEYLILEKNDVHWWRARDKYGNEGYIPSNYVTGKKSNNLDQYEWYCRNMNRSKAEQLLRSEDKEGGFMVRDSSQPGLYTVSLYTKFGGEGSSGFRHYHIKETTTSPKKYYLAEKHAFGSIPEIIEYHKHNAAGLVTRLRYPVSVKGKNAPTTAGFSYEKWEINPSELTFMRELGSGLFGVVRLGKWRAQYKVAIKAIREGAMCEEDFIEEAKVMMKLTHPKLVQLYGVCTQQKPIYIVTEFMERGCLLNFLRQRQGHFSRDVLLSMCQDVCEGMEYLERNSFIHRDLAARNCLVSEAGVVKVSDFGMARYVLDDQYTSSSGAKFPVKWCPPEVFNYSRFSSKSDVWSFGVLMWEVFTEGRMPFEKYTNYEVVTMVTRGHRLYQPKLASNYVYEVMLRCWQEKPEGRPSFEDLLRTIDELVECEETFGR
The data set is described as follows: Off-chip Mobility Shift Assay, kinase inhibition. It is filed as biochemical. Particulars: at 1 nM; recombinant TEC.

What is called inhibition is the relative decrease from the control value, in per cent. Take `[2H]c1cc(C)c(NC(=O)c2cnc(Nc3cc(N4CCCCC4)nc(C)n3)s2)c(Cl)c1` [Compound I, N-(2-chloro-4-deuterio-6-methyl-phenyl)-2-[[2-methyl-6-(1-piperidyl)pyrimidin-4-yl]amino]thiazole-5-carboxamide]: the inhibition at 0.001 µM in data set [1], in data set [2], in data set [3], in data set [4] and in data set [5] was more than 50% throughout. For the same compound, the inhibition at 0.01 µM in data set [1], in data set [2], in data set [3], in data set [4] and in data set [5] was more than 50% in each case. Also, in data set [6], the “metabolic stability compared to dasatinib” value is recorded as “significantly greater stability”.
On to `[2H]c1cc(C)c(NC(=O)c2cnc(Nc3cc(N4CCC(O)CC4)nc(C)n3)s2)c(Cl)c1` [Compound II, N-(2-chloro-4-deuterio-6-methyl-phenyl)-2-[[6-(4-hydroxy-1-piperidyl)-2-methyl-pyrimidin-4-yl]amino]thiazole-5-carboxamide], for which the inhibition at 0.001 µM in data set [1], in data set [2], in data set [3], in data set [4], in data set [5] and in data set [7] was more than 50% in each case. Moreover, the inhibition at 0.01 µM in data set [1], in data set [2], in data set [3], in data set [4] and in data set [5] was more than 50% throughout.
`[2H]c1cc(C)c(NC(=O)c2cnc(Nc3cc(N4CC[C@H](O)C4)nc(C)n3)s2)c(Cl)c1` [Compound IV, N-(2-chloro-4-deutero-6-methylphenyl)-2-[[2-methyl-6-((S)-3-hydroxypyrrolidin-1-yl)pyrimidin-4-yl]amino]thiazole-5-carboxamide]: the inhibition at 0.001 µM in data set [1], in data set [2], in data set [5] and in data set [7] was more than 50% throughout. For the same compound, the inhibition at 0.01 µM in data set [1], in data set [2], in data set [3], in data set [4] and in data set [5] was more than 50% in each case. Besides, the “In vitro t1/2” value in data set [6] is 1.47 h. Also, in data set [6], the “metabolic stability compared to dasatinib” value is “significantly greater stability”.
With `Cc1nc(Nc2ncc(C(=O)Nc3c(C)cccc3Cl)s2)cc(N2CCC(O)CC2)n1` [Compound IX, N-(2-chloro-6-methylphenyl)-2-[[2-methyl-6-(4-hydroxypiperidin-1-yl)pyrimidin-4-yl]amino]thiazole-5-carboxamide], the inhibition at 0.001 µM in data set [1], in data set [2], in data set [5] and in data set [7] was more than 50% throughout. The inhibition at 0.01 µM in data set [1], in data set [2], in data set [3], in data set [4] and in data set [5] was more than 50% throughout.
Regarding `[2H]c1cc(C)c(NC(=O)c2cnc(Nc3cc(N4CC[C@@H](O)C4)nc(C)n3)s2)c(Cl)c1` [Compound V, N-(2-chloro-4-deutero-6-methylphenyl)-2-[[2-methyl-6-((R)-3-hydroxypyrrolidin-1-yl)pyrimidin-4-yl]amino]thiazole-5-carboxamide], the inhibition at 0.001 µM in data set [1], in data set [2], in data set [5] and in data set [7] was more than 50% throughout. In addition, the inhibition at 0.01 µM in data set [1], in data set [2], in data set [3], in data set [4] and in data set [5] was more than 50% in each case. Moreover, the “In vitro t1/2” value in data set [6] stood at 1.12 h. Also, in data set [6], the “metabolic stability compared to dasatinib” value is listed as “significantly greater stability”.
Turning to `[2H]c1cc(C)c(NC(=O)c2cnc(Nc3cc(N4CC[C@H](N)C4)nc(C)n3)s2)c(Cl)c1` [Compound VI, N-(2-chloro-4-dutero-6-methylphenyl)-2-[[2-methyl-6-((S)-3-aminopyrrolidin-1-yl)pyrimidin-4-yl]amino]thiazole-5-carboxamide], the inhibition at 0.001 µM in data set [1], in data set [2], in data set [5] and in data set [7] was more than 50% in each case. The inhibition at 0.01 µM in data set [1], in data set [2], in data set [3], in data set [4] and in data set [5] was more than 50% in each case. The “metabolic stability compared to dasatinib” value in data set [6] was “significantly greater stability”.
Consider `[2H]c1cc(C)c(NC(=O)c2cnc(Nc3cc(N4CC[C@@H](N)C4)nc(C)n3)s2)c(Cl)c1` [Compound VII, N-(2-chloro-4-deutero-6-methylphenyl)-2-[[2-methyl-6-((R)-3-aminopyrrolidin-1-yl)pyrimidin-4-yl]amino]thiazole-5-carboxamide], for which the inhibition at 0.001 µM in data set [1], in data set [2], in data set [5] and in data set [7] was more than 50% each time. The inhibition at 0.01 µM in data set [1], in data set [2], in data set [3], in data set [4] and in data set [5] was more than 50% throughout. In data set [6], the “metabolic stability compared to dasatinib” value is on record as “significantly greater stability”.
